Test results published in ChEMBL document CHEMBL4118101 (Bioorg Med Chem, 2018).
In brackets after ≈: the same amount, converted by molar mass. Activity calls are given as the source filed them. The rule behind the calls is not given here.

Columns and labels:
Candida albicans [1] = assay: Ratio of MIC for Candida albicans ATCC 10231 in presence of 10% FBS to MIC for Candida albicans ATCC 10231 in absence of 10% FBS; type: functional
Cryptococcus neoformans [2] = assay: Antifungal activity against Cryptococcus neoformans isolate CN1 measured after 48 hrs by CLSI M27-A3 protocol based method; type: functional; details: isolate CN1, 48 h
Aspergillus flavus = assay: Antifungal activity against Aspergillus flavus ATCC MYA-3631 measured after 48 hrs by CLSI M38-A2 protocol based method; type: functional; details: ATCC MYA-3631, 48 h
[3] = Hemolytic activity in mouse RBC at 1.95 ug/ml after 1 hr relative to control; type: ADME, cell-based, Erythrocyte; details: mouse red blood cells (erythrocytes), at 1.95 µg/mL, read-out: Activity
Candida albicans [4] = assay: Antifungal activity against fluconazole/ITC-resistant Candida albicans ATCC 90819 measured after 48 hrs by CLSI M27-A3 protocol based method; type: functional; details: Candida albicans, ATCC 90819, 48 h; read-out: MIC
Aspergillus terreus = assay: Antifungal activity against Aspergillus terreus ATCC MYA-3633 measured after 48 hrs by CLSI M38-A2 protocol based method; type: functional; details: ATCC MYA-3633, 48 h
Candida albicans [5] = assay: Antifungal activity against Candida albicans ATCC 10231 measured after 48 hrs in presence of 10% FBS by CLSI M27-A3 protocol based method; type: functional; details: Candida albicans, ATCC 10231, 48 h
Candida parapsilosis [6] = assay: Antifungal activity against Candida parapsilosis ATCC 22019 measured after 48 hrs in presence of 10% FBS by CLSI M27-A3 protocol based method; type: functional; details: Lodderomyces parapsilosis, ATCC 22019, 48 h
Candida parapsilosis [7] = assay: Antifungal activity against Candida parapsilosis isolate CP1 measured after 48 hrs by CLSI M27-A3 protocol based method; type: functional; details: Lodderomyces parapsilosis, isolate CP1, 48 h
[8] = Hemolytic activity in mouse RBC at 62.5 ug/ml after 1 hr relative to control; type: ADME, cell-based, Erythrocyte; details: mouse red blood cells (erythrocytes), read-out: Activity
Candida parapsilosis [9] = assay: Antifungal activity against Candida parapsilosis ATCC 22019 measured after 48 hrs by CLSI M27-A3 protocol based method; type: functional; details: Lodderomyces parapsilosis, ATCC 22019, 48 h
Candida albicans [10] = assay: Inhibition of Candida albicans ATCC 10231 ERG11 assessed as 14alphamethyl ergosta-8,24(28)-diene-3beta,6alpha-diol composition of total sterols at 0.48 ug/ml incubated for 10 mins followed by saponification for 2 hrs by GC-MS method relative to control; parameters: scale not given: the % may be the effect or the level left
Cryptococcus neoformans [11] = assay: Antifungal activity against Cryptococcus neoformans isolate CN2 measured after 48 hrs by CLSI M27-A3 protocol based method; type: functional; details: Cryptococcus neoformans, isolate CN2, 48 h; read-out: MIC
Candida albicans [12] = assay: Inhibition of Candida albicans ATCC 10231 ERG11 assessed as ergosterol composition of total sterols at 0.48 ug/ml incubated for 10 mins followed by saponification for 2 hrs by GC-MS method (reference value: 100%); parameters: scale not given: the % may be the effect or the level left
Aspergillus nidulans [13] = assay: Antifungal activity against Aspergillus nidulans ATCC 38163 measured after 48 hrs by CLSI M38-A2 protocol based method; type: functional; details: ATCC 38163, 48 h
Candida albicans [14] = assay: Induction of membrane permeabilization in Candida albicans ATCC 10231 assessed as membrane disruption at 4 times MIC after 1 hr by propidium iodide staining based fluorescence microscopy; type: functional, organism-based
[15] = Cytotoxicity against HEK293 cells assessed as cell survival at 3.9 ug/ml after 24 hrs by resazurin based assay relative to control; details: human, read-out: Survival
Candida albicans [16] = assay: Antifungal activity against fluconazole/ITC-susceptible Candida albicans ATCC MYA-2876 measured after 48 hrs by CLSI M27-A3 protocol based method; type: functional; details: Candida albicans, ATCC MYA-2876, 48 h
A549 = assay: Cytotoxicity against human A549 cells up to 7.8 ug/ml after 24 hrs by resazurin based assay; type: cell-based; details: a549, 24 h
Nakaseomyces glabratus [17] = assay: Antifungal activity against Candida glabrata ATCC 2001 measured after 48 hrs by CLSI M27-A3 protocol based method; type: functional, CBS 138; details: Nakaseomyces glabratus, CBS 138, 48 h; read-out: MIC
[18] = Hemolytic activity in mouse RBC at 7.8 ug/ml after 1 hr relative to control; type: ADME, cell-based, Erythrocyte; details: mouse red blood cells (erythrocytes), read-out: Activity
Candida parapsilosis [19] = assay: Antifungal activity against Candida parapsilosis isolate CP3 measured after 48 hrs by CLSI M27-A3 protocol based method; type: functional; details: Lodderomyces parapsilosis, isolate CP3, 48 h
[20] = Hemolytic activity in mouse RBC at 0.48 ug/ml after 1 hr relative to control; type: ADME, cell-based, Erythrocyte; details: mouse red blood cells (erythrocytes), read-out: Activity
Pichia kudriavzevii = assay: Antifungal activity against Candida krusei ATCC 6258 measured after 48 hrs by CLSI M27-A3 protocol based method; type: functional; details: Pichia kudriavzevii, ATCC 6258, 48 h
[21] = Hemolytic activity in mouse RBC at 31.3 ug/ml after 1 hr relative to control; type: ADME, cell-based, Erythrocyte; details: mouse red blood cells (erythrocytes), at 31.3 µg/mL, read-out: Activity
Nakaseomyces glabratus [22] = assay: Antifungal activity against Candida glabrata isolate CG2 measured after 48 hrs by CLSI M27-A3 protocol based method; type: functional; details: Nakaseomyces glabratus, isolate CG2, 48 h; read-out: MIC
Aspergillus nidulans [23] = assay: Antifungal activity against Aspergillus nidulans ATCC 38163 measured after 48 hrs in presence of 10% FBS by CLSI M38-A2 protocol based method; type: functional; details: ATCC 38163, 48 h
Nakaseomyces glabratus [24] = assay: Antifungal activity against Candida glabrata isolate CG3 measured after 48 hrs by CLSI M27-A3 protocol based method; type: functional; details: Nakaseomyces glabratus, 48 h; read-out: MIC
Aspergillus nidulans [25] = assay: Ratio of MIC for Aspergillus nidulans ATCC 38163 in presence of 10% FBS to MIC for Aspergillus nidulans ATCC 38163 in absence of 10% FBS; type: functional
Nakaseomyces glabratus [26] = assay: Antifungal activity against Candida glabrata isolate CG1 measured after 48 hrs by CLSI M27-A3 protocol based method; type: functional; details: Nakaseomyces glabratus, 48 h; read-out: MIC
[27] = Hemolytic activity in mouse RBC at 3.9 ug/ml after 1 hr relative to control; type: ADME, cell-based, Erythrocyte; details: mouse red blood cells (erythrocytes), read-out: Activity
[28] = Hemolytic activity in mouse RBC at […] ug/ml after 1 hr relative to control; type: ADME, cell-based, Erythrocyte; details: mouse red blood cells (erythrocytes), read-out: Activity
Candida albicans [29] = assay: Inhibition of Candida albicans ATCC 10231 ERG11 assessed as eburicol composition of total sterols at 0.48 ug/ml incubated for 10 mins followed by saponification for 2 hrs by GC-MS method relative to control; parameters: scale not given: the % may be the effect or the level left
BEAS-2B = assay: Cytotoxicity against human BEAS2B cells up to 7.8 ug/ml after 24 hrs by resazurin based assay; type: cell-based
Candida albicans [30] = assay: Antifungal activity against fluconazole/ITC-resistant Candida albicans ATCC MYA-1237 measured after 48 hrs by CLSI M27-A3 protocol based method; type: functional; details: Candida albicans, ATCC MYA-1237, 48 h; read-out: MIC
Cryptococcus neoformans [31] = assay: Antifungal activity against Cryptococcus neoformans isolate CN3 measured after 48 hrs by CLSI M27-A3 protocol based method; type: functional; details: Cryptococcus neoformans, isolate CN3, 48 h; read-out: MIC
Candida albicans [32] = assay: Antifungal activity against Candida albicans ATCC 10231 measured after 48 hrs by CLSI M27-A3 protocol based method; type: functional; details: ATCC 10231, 48 h
Candida parapsilosis [33] = assay: Antifungal activity against Candida parapsilosis isolate CP2 measured after 48 hrs by CLSI M27-A3 protocol based method; type: functional; details: Lodderomyces parapsilosis, isolate CP2, 48 h
Candida albicans [34] = assay: Inhibition of Candida albicans ATCC 10231 ERG11 assessed as lanosterol composition of total sterols at 0.48 ug/ml incubated for 10 mins followed by saponification for 2 hrs by GC-MS method relative to control; parameters: scale not given: the % may be the effect or the level left

CCCCCCCCCCCCNCC(O)(Cn1cncn1)c1ccc(F)cc1F (stereo not given)
Ratio (Candida albicans [1]): 2 | MIC (Cryptococcus neoformans [2]): 0.57 µM (≈ 0.241 µg/mL) | MIC (Aspergillus flavus): 18.5 µM (≈ 7.82 µg/mL) | hemolysis at 1 h, 1.95 ug/ml [3]: 2% | MIC (Candida albicans [4]): 4.6 µM (≈ 1.94 µg/mL) | MIC (Aspergillus terreus): 9.2 µM (≈ 3.89 µg/mL) | MIC (Candida albicans [5]): 1.95 µg/mL | MIC (Candida parapsilosis [6]): 0.24 µg/mL | MIC (Candida parapsilosis [7]): 0.14 µM (≈ 0.0592 µg/mL) | hemolysis at 1 h, 62.5 ug/ml [8]: 98% | MIC (Candida parapsilosis [9]): 1.1 µM (≈ 0.465 µg/mL) | Activity (Candida albicans [10]): 4.69% | MIC (Cryptococcus neoformans [11]): 0.57 µM (≈ 0.241 µg/mL) | Activity (Candida albicans [12]): 36.6% | MIC (Aspergillus nidulans [13]): 4.6 µM (≈ 1.94 µg/mL) | Activity (Candida albicans [14]): Active | viability at 24 h, 3.9 ug/ml [15]: > 50% | MIC (Candida albicans [16]): 9.2 µM (≈ 3.89 µg/mL) | Activity (A549): Non-Toxic | MIC (Nakaseomyces glabratus [17]): 2.3 µM (≈ 0.972 µg/mL) | hemolysis at 1 h, 7.8 ug/ml [18]: 21% | MIC (Candida parapsilosis [19]): 0.28 µM (≈ 0.118 µg/mL) | hemolysis at 1 h, 0.48 ug/ml [20]: 2% | MIC (Pichia kudriavzevii): 2.3 µM (≈ 0.972 µg/mL) | hemolysis at 1 h, 31.3 ug/ml [21]: 100% | MIC (Nakaseomyces glabratus [22]): 2.3 µM (≈ 0.972 µg/mL) | MIC (Aspergillus nidulans [23]): 7.8 µg/mL | MIC (Nakaseomyces glabratus [24]): 4.6 µM (≈ 1.94 µg/mL) | Ratio (Aspergillus nidulans [25]): 4 | MIC (Nakaseomyces glabratus [26]): 4.6 µM (≈ 1.94 µg/mL) | hemolysis at 1 h, 3.9 ug/ml [27]: 8% | hemolysis at 1 h, 0.975 ug/ml [28]: 2% | hemolysis at 1 h, 15.6 ug/ml [28]: 86% | Activity (Candida albicans [29]): 0.57% | Activity (BEAS-2B): Non-Toxic | MIC (Candida albicans [30]): 18.5 µM (≈ 7.82 µg/mL) | MIC (Cryptococcus neoformans [31]): 1.1 µM (≈ 0.465 µg/mL) | MIC (Candida albicans [32]): 2.3 µM (≈ 0.972 µg/mL) | MIC (Candida parapsilosis [33]): 0.57 µM (≈ 0.241 µg/mL) | Activity (Candida albicans [34]): 10%
